# Results from article PMC4447944 (The Journal of Biological Chemistry, 2015).
# Tests used:
# hICK = target: T1, hICK (Homo sapiens, UniProt Q9UPZ9); assay: KINOMEscan; type: binding
# T1 construct: purchased DiscoverX (KINOMEscan panel)
# hRSK1(Kin.Dom.1-N-term) = target: T2, hRSK1(Kin.Dom.1-N-term) (Homo sapiens, UniProt Q15418); assay: KINOMEscan; type: binding
# T2 construct: hRSK1(Kin.Dom.1-N-term); purchased DiscoverX (KINOMEscan platform)
# hLRRK2(G2019S) = target: T3, hLRRK2(G2019S) (Homo sapiens, UniProt Q5S007, G2019S); assay: KINOMEscan; type: binding
# T3 construct: purchased DiscoverX (KINOMEscan platform)
# hMAP3K3 = target: T4, hMAP3K3 (Homo sapiens, UniProt Q99759); assay: KINOMEscan; type: binding
# T4 construct: purchased DiscoverX (KINOMEscan platform)
# hTYRO3 = target: T5, hTYRO3 (Homo sapiens, UniProt Q06418); assay: KINOMEscan; type: binding
# T5 construct: purchased DiscoverX
# hACVR2A = target: T6, hACVR2A (Homo sapiens, UniProt P27037); assay: KINOMEscan; type: binding
# T6 construct: purchased DiscoverX (KINOMEscan platform)
# hBMPR1A = target: T7, hBMPR1A (Homo sapiens, UniProt P36894); assay: KINOMEscan; type: binding
# T7 construct: purchased DiscoverX
# hFES = target: T8, hFES (Homo sapiens, UniProt P07332); assay: KINOMEscan; type: binding
# T8 construct: purchased DiscoverX
# hMKK7 = target: T9, hMKK7 (Homo sapiens, UniProt O14733); assay: KINOMEscan; type: binding
# T9 construct: purchased DiscoverX
# hDYRK1A = target: T10, hDYRK1A (Homo sapiens, UniProt Q13627); assay: KINOMEscan; type: binding
# T10 construct: purchased DiscoverX
# hMINK = target: T11, hMINK (Homo sapiens, UniProt Q8N4C8); assay: KINOMEscan; type: binding
# T11 construct: purchased DiscoverX
# hKIT(D816V) = target: T12, hKIT(D816V) (Homo sapiens, UniProt P10721, D816V); assay: KINOMEscan; type: binding
# T12 construct: purchased DiscoverX (KINOMEscan panel)
# hFXR = hFXR (Homo sapiens, UniProt Q96RI1); assay: Nuclear hormone receptor assay (Eurofins-CEREP)
# hMAP4K2 = target: T13, hMAP4K2 (Homo sapiens, UniProt Q12851); assay: KINOMEscan; type: binding
# T13 construct: purchased DiscoverX (KINOMEscan platform)
# hSTK36 = target: T14, hSTK36 (Homo sapiens, UniProt Q9NRP7); assay: KINOMEscan; type: binding
# T14 construct: purchased DiscoverX (KINOMEscan platform)
# hABL1(T315I) = target: T15, hABL1(T315I) (Homo sapiens, UniProt P00519, T315I); assay: KINOMEscan; type: binding
# T15 construct: purchased DiscoverX (KINOMEscan platform)
# hTSSK1B = target: T16, hTSSK1B (Homo sapiens, UniProt Q9BXA7); assay: KINOMEscan; type: binding
# T16 construct: purchased DiscoverX
# hEPHA6 = target: T17, hEPHA6 (Homo sapiens, UniProt Q9UF33); assay: KINOMEscan; type: binding
# T17 construct: purchased DiscoverX
# hFER = target: T18, hFER (Homo sapiens, UniProt P16591); assay: KINOMEscan; type: binding
# T18 construct: purchased DiscoverX
# hRIPK4 = target: T19, hRIPK4 (Homo sapiens, UniProt P57078); assay: KINOMEscan; type: binding
# T19 construct: purchased DiscoverX (KINOMEscan platform)
# SMYD2 = SMYD2 (Homo sapiens, UniProt Q9NRG4); assay: Thermal denaturation fluorometry (differential scanning fluorometry); type: binding; conditions: 100 μM LLY-507
# Procedure: SMYD2 protein unfolding was monitored on a 384-well Roche Lightcycler480 II^TM RT-PCR machine using SYPRO® Orange as a reporter dye (Invitrogen, S6651). Excitation and emission filters were set at 465 and 580 nm, respectively; the temperature was continuously ramped from 25 to 95 °C at a rate of 0.11°C/s. The reaction mixture (6 μl/well) contained 3.9 μM SMYD2 protein and 100 μM compound in 20 mM Tris, pH 8.0, 150 mM NaCl, 10% glycerol, 2 mM tris(2-carboxyethyl)phosphine (TCEP), and 1% DMSO buffer. Triplicates were run along with protein without compound as a negative control.
# hSRMS = target: T20, hSRMS (Homo sapiens, UniProt Q9H3Y6); assay: KINOMEscan; type: binding
# T20 construct: purchased DiscoverX (KINOMEscan platform)
# hVRK2 = target: T21, hVRK2 (Homo sapiens, UniProt Q86Y07); assay: KINOMEscan; type: binding
# T21 construct: purchased DiscoverX
# mono-methyl-Lys370 p53 = assay: Meso Scale Discovery sandwich ELISA mono-methyl-Lys370 p53/total p53, KYSE-150 cells stably expressing FLAG-SMYD2; type: cell-based; conditions: Homo sapiens; KYSE-150 stably expressing SMYD2, sandwich ELISA, 24 h
# Procedure: Cell lysates were subject to 10% SDS-PAGE and transferred to a PVDF membrane. Each membrane was blocked in Odyssey Blocking Buffer (LI-COR Biosciences) and incubated with monoclonal anti-p53 (D01) antibody (Abcam, ab1101) or rabbit anti-p53 Lys^370me1 antibody (a kind gift from Dr. Shelley Berger) followed by detection with IRDye®680RD goat anti-mouse IgG (LI-COR Biosciences) and IRDye800CW goat anti-rabbit IgG (LI-COR Biosciences) on the Odyssey Imager (LI-COR Biosciences). […] 4–8 h later, cells were treated with 0–25 μM compound for 15 h. […] 24 h later, cells were lysed with 200 μl of MSD Tris Lysis Buffer^TM (Meso Scale Discovery). A MULTI-ARRAY^TM 96-well plate (Meso Scale Discovery, catalog number L15XA-3) was precoated with 2 μg/ml custom-made methyl-p53 antibody (Lampire) in PBS overnight at 4 °C. 150 μl/well MSD Blocking Solution A^TM (final concentration of 3%) was added followed by shaking at room temperature for 1 h. The plate was washed three times with 1× MSD Tris Wash Buffer^TM (Meso Scale Discovery). 0.5 μg of cell lysate in 25 μl/well MSD Tris Lysis Buffer was added, followed by shaking overnight at 4 °C. […] Following a final wash three times with 1× MSD Tris Wash Buffer, 150 μl/well 1× MSD Read Buffer^TM (Meso Scale Discovery) was added, and plates were read on an MSD SECTOR^TM Imager 6000 instrument (Meso Scale Discovery).
# SMYD2, sequence (Q9NRG4 whole entry): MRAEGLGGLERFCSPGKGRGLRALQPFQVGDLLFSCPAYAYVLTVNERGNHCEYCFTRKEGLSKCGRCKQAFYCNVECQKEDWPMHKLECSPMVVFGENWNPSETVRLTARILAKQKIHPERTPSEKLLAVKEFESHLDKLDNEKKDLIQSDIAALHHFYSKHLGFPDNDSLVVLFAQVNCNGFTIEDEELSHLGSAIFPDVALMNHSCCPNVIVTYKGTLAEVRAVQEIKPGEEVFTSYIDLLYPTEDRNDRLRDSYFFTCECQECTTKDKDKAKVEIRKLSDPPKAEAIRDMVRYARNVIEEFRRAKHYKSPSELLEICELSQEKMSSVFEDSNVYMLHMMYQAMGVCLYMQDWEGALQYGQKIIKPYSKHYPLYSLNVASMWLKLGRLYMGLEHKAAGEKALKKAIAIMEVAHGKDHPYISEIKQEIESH
# hFXR, sequence (Q96RI1 whole entry): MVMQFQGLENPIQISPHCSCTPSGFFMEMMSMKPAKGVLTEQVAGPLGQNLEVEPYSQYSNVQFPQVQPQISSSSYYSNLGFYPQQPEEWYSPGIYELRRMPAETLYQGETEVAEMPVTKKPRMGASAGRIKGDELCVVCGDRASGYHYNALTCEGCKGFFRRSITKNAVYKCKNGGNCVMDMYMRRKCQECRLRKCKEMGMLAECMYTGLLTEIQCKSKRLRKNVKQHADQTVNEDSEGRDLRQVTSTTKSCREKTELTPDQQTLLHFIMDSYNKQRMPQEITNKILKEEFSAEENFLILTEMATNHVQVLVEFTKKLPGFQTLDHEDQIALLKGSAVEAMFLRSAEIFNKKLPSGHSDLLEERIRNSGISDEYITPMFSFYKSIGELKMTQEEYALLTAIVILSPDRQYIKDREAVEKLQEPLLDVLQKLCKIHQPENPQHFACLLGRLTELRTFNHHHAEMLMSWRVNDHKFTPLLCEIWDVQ
# T12 sequence (P10721 26-976 D816V): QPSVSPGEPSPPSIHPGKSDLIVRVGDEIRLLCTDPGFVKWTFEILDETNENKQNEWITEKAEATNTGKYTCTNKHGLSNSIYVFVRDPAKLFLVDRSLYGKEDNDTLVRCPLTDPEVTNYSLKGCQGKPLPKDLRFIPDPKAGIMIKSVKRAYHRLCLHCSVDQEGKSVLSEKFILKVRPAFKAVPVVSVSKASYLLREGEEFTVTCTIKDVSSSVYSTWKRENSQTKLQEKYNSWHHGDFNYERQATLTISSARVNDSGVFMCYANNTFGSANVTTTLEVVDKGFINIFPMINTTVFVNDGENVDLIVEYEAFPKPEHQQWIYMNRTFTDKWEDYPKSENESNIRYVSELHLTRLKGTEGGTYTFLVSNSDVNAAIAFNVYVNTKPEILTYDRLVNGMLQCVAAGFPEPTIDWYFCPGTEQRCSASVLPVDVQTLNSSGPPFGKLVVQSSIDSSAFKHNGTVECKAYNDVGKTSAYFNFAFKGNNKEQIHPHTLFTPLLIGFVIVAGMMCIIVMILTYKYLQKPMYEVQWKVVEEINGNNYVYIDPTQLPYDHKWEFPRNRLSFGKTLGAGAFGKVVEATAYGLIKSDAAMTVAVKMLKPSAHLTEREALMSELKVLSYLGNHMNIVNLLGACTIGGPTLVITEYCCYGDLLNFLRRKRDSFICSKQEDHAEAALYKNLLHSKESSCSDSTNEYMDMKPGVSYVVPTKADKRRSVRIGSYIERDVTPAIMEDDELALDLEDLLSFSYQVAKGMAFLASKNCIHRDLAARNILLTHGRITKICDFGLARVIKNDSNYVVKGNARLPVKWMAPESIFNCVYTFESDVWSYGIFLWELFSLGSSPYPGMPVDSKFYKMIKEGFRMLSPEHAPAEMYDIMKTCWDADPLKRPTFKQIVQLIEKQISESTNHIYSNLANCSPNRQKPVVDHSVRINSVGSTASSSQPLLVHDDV
# T6 sequence (P27037 20-513): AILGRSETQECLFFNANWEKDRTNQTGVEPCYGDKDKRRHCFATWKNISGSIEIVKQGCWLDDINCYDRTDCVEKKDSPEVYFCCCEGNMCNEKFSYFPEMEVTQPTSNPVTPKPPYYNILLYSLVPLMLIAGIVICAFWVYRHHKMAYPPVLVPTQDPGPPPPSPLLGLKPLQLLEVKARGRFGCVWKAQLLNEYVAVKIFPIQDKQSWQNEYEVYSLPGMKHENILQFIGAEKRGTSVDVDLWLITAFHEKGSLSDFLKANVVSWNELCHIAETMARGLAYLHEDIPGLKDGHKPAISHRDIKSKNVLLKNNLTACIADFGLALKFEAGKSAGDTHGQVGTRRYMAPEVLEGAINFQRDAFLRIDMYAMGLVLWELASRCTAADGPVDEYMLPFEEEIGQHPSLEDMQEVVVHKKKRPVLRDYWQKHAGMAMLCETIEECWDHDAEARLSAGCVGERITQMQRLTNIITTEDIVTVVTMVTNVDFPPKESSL
# T13 sequence (Q12851 whole entry): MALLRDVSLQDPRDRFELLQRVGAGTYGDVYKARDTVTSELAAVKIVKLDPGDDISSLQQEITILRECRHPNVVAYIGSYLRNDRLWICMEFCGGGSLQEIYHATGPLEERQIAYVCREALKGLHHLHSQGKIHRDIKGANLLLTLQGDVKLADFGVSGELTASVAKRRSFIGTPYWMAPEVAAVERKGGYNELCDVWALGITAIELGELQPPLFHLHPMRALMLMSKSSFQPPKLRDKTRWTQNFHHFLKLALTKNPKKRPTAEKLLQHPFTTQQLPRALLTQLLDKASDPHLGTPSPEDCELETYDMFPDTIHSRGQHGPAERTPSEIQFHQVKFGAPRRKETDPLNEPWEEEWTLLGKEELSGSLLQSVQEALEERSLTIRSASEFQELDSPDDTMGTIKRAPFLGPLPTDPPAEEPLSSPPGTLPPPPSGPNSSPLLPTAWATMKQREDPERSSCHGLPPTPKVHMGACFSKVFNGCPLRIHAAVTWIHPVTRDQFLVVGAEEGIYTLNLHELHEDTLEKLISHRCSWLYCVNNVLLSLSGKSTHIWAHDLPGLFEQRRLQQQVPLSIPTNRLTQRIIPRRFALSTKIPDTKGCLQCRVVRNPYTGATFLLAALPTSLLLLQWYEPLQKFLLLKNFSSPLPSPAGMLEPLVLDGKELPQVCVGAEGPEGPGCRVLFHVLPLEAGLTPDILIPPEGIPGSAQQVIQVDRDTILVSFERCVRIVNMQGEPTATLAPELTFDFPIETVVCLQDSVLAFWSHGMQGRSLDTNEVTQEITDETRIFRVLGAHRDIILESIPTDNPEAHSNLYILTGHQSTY
# T21 sequence (Q86Y07 whole entry): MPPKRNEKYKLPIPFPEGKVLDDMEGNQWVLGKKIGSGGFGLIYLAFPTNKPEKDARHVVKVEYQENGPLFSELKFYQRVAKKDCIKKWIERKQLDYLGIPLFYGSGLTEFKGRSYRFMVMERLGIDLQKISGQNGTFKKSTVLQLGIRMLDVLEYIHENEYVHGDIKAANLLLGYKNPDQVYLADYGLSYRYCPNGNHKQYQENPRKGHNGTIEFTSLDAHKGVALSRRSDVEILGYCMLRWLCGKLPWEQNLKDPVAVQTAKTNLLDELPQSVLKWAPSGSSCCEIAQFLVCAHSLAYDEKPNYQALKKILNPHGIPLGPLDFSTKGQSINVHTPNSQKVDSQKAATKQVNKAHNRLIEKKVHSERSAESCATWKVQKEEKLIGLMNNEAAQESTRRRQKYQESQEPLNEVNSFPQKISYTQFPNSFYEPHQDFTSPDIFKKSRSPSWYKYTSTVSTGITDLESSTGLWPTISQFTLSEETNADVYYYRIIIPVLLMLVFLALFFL
# T8 sequence (P07332 whole entry): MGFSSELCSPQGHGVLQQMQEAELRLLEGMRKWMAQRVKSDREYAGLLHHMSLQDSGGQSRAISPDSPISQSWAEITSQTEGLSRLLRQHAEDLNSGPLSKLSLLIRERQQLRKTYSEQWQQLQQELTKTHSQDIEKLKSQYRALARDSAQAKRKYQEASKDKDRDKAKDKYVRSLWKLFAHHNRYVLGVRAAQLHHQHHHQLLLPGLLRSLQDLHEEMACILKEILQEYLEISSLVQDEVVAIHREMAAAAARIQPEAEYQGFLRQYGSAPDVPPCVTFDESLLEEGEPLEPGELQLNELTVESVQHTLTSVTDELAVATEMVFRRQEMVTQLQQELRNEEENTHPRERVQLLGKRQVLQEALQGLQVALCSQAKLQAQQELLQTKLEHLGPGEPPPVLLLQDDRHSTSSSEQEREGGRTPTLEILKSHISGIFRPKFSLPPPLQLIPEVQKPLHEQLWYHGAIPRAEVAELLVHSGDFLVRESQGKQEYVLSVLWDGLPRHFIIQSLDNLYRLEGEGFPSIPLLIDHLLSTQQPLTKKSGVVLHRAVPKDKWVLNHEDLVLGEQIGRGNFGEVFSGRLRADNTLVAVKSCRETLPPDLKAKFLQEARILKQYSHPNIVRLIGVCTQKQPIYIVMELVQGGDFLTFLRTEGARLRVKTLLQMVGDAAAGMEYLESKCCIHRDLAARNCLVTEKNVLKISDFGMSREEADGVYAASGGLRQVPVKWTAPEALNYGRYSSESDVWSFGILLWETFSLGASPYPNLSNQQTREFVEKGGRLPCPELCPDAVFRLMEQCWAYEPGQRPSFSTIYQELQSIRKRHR
# T2 sequence (Q15418 62-321 limits assumed): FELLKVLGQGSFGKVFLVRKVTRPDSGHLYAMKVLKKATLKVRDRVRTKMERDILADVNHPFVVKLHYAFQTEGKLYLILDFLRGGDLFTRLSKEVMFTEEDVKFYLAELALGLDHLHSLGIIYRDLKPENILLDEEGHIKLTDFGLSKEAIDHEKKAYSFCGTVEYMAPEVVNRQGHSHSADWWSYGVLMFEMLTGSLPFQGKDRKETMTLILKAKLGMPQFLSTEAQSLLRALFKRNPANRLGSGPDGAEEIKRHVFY
compound,measurement,setting,value
"Cc1cn(CCN2CCN(c3ccccc3-c3cc(C#N)cc(C(=O)NCCCN4CCCC4)c3)CC2)c2ccccc12 [LLY-507, 3-cyano-5-{2-[4-[2-(3-methylindol-1-yl)ethyl]piperazin-1-yl]-phenyl}-N-[(3-pyrrolidin-1-yl)propyl]benzamide]",IC50,hICK,> 20 µM
same,IC50,hRSK1(Kin.Dom.1-N-term),> 20 µM
same,IC50,hLRRK2(G2019S),> 20 µM
same,IC50,hMAP3K3,> 20 µM
same,IC50,hTYRO3,> 20 µM
same,IC50,hACVR2A,> 20 µM
same,IC50,hBMPR1A,> 20 µM
same,IC50,hFES,> 20 µM
same,IC50,hMKK7,> 20 µM
same,IC50,hDYRK1A,> 20 µM
same,IC50,hMINK,> 20 µM
same,IC50,hKIT(D816V),> 20 µM
same,IC50,hFXR,> 10 µM
same,IC50,hMAP4K2,> 20 µM
same,IC50,hSTK36,> 20 µM
same,IC50,hABL1(T315I),> 20 µM
same,IC50,hTSSK1B,> 20 µM
same,IC50,hEPHA6,> 20 µM
same,IC50,hFER,> 20 µM
same,IC50,hRIPK4,> 20 µM
same,increase in thermal stability of SMYD2,SMYD2,5 °C
same,Tm of SMYD2 in presence of compound,SMYD2; SMYD2 alone Tm = 49 °C,54 °C
same,IC50,hSRMS,> 20 µM
same,IC50,hVRK2,> 20 µM
same,IC50,mono-methyl-Lys370 p53,0.6 µM
